From US10689362B2, “Quinoxaline compounds as type III receptor tyrosine kinase inhibitors” (Development Center for Biotechnology, priority 2016, dated 2020)

What was measured:
[1] = molecular target: PDGFRβ kinase (Homo sapiens (Human), UniProt P09619); experiment: PDGFRβ kinase assay (radiometric); type: biochemical
Summary of the method: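 Radiometric assay: recombinant PDGFRβ with poly(Glu4:Tyr1) in MOPS pH 7.0 buffer containing Mg2+/Mn2+, 10 μM ATP plus [33P]-ATP, and compound at 4% DMSO final. Incubated 60 min at 30° C, stopped with phosphoric acid, filter-captured and scintillation-counted. IC50 from curve fitting.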

[2] = system: osteoclast precursors (osteoclast differentiation); experiment: Osteoclast tartrate-resistant acid phosphatase assay; type: cell-based; settings: 168 h, at 1 μM treatment, 7 days, RANKL and M-CSF, read-out: inhibition activity against osteoclast differentiation
Summary of the method: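 Differentiation inhibition was scored at 1 μM compound in duplicate, using supernatant TRAP activity read at 550 nm with an acid phosphatase kit.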

[3] = molecular target: CSF-1R kinase (Homo sapiens (Human), UniProt P07333); experiment: CSF-1R kinase assay (AlphaScreen); type: biochemical; settings: class symbol
Sequence of CSF-1R kinase (P07333 20-972): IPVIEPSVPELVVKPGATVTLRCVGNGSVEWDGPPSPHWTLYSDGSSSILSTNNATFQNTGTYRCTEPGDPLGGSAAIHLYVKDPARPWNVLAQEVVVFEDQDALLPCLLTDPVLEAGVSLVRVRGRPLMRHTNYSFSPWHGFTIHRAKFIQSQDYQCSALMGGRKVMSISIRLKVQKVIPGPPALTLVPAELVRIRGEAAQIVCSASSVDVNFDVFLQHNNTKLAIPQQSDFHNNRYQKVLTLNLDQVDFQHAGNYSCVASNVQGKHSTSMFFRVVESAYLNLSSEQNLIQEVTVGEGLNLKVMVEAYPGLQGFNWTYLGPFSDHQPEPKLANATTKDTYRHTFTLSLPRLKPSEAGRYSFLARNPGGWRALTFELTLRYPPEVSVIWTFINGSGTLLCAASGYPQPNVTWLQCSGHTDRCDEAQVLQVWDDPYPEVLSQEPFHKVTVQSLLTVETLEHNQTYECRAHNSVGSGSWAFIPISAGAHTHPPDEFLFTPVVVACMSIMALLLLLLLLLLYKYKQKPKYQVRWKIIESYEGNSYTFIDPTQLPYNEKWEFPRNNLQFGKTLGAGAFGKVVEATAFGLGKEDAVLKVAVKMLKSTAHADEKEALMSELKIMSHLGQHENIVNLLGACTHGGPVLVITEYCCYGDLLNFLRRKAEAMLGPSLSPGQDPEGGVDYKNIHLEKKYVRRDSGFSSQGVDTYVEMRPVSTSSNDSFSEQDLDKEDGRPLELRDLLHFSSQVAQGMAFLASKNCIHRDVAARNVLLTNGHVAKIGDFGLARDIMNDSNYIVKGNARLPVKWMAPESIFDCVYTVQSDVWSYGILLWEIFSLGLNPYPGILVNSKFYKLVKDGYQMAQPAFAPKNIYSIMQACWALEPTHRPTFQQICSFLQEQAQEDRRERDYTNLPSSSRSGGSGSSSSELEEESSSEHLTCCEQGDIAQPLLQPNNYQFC
Method: Inhibition of CSF-1R kinase activity by a test compound disclosed herein was estimated by AlphaScreen (PerkinElmer). […] Reactions were incubated at 30° C. for 45 min and stopped by adding 5 μL of 50 mM EDTA. Analysis of resulting product using an AlphaScreen kit, and counted with Enspire Alpha (PerkinElmer). […] The IC50 values of quinoxaline compounds of this invention against CSF-1R kinase were determined using the GraphPad Prism 5 software.

[4] = system: THP-1 human acute monocytic leukemia cell harboring NRAS G12D mutation; experiment: THP-1 cell proliferation assay (counter screen, CellTiter-96); type: cell-based; settings: Cytotoxicity, THP-1 cells (counter screen), 72 hours
Summary of the method: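 THP-1 cells, RTK-independent owing to NRAS G12D, seeded at 5000/well, incubated overnight at 37 °C/5% CO2, then exposed to increasing compound concentrations for 72 h. CellTiter96 AQueous One reagent added for 4 h; viability from absorbance at 490 nm.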

[5] = molecular target: c-KIT kinase (Homo sapiens (Human), UniProt P10721); experiment: c-KIT kinase assay (radiometric); type: biochemical
Sequence of c-KIT kinase (P10721 26-976): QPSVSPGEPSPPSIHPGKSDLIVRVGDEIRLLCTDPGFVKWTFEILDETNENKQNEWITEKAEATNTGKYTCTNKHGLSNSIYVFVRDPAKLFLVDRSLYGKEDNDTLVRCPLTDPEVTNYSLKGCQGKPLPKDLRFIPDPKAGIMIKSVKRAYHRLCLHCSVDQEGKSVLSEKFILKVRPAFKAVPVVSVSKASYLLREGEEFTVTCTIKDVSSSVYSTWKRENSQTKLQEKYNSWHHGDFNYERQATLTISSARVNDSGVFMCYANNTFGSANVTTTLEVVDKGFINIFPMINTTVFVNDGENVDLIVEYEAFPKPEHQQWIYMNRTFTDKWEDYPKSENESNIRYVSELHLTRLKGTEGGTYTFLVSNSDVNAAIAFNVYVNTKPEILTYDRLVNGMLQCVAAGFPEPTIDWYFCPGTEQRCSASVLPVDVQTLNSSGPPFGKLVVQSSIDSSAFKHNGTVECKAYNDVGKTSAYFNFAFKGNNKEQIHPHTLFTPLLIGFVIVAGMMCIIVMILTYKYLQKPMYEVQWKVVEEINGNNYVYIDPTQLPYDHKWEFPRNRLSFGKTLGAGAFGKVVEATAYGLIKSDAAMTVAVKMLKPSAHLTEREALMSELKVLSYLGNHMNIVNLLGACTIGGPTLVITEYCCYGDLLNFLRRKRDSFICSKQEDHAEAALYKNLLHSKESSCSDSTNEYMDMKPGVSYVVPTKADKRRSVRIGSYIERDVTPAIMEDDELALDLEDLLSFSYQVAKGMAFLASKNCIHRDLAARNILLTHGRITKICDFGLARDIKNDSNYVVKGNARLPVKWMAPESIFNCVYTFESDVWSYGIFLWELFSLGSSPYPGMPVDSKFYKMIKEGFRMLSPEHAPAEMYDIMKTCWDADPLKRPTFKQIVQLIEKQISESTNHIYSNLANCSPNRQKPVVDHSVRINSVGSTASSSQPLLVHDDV
Summary of the method: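 Recombinant c-Kit (20 ng) with 2 μg Poly-(Glu4:Tyr1) in MOPS pH 7.0 buffer with MgCl2/MnCl2, 10 μM ATP plus [^33P]-ATP, 4% DMSO final, 60 min at 30° C. Stopped with phosphoric acid, filter-captured and scintillation counted; IC50 from curve fit.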

[6] = system: Kasumi-1 human acute myeloid leukemia cell with c-KIT N822K activating mutation; experiment: Kasumi-1 cell proliferation assay (CellTiter-96); type: cell-based; settings: Cytotoxicity, Kasumi-1 cells, 72 hours
Summary of the method: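 Kasumi-1 cells, seeded at 64000 cells/well and incubated overnight at 37 °C, were exposed to increasing compound concentrations for 72 h. Viability was measured by CellTiter96 AQueous One reagent (4 h) and absorbance at 490 nm.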

[7] = molecular target: FLT3 kinase (Homo sapiens (Human), UniProt P36888); experiment: FLT3 kinase assay (radiometric); type: biochemical
Sequence of FLT3 kinase (P36888 27-993): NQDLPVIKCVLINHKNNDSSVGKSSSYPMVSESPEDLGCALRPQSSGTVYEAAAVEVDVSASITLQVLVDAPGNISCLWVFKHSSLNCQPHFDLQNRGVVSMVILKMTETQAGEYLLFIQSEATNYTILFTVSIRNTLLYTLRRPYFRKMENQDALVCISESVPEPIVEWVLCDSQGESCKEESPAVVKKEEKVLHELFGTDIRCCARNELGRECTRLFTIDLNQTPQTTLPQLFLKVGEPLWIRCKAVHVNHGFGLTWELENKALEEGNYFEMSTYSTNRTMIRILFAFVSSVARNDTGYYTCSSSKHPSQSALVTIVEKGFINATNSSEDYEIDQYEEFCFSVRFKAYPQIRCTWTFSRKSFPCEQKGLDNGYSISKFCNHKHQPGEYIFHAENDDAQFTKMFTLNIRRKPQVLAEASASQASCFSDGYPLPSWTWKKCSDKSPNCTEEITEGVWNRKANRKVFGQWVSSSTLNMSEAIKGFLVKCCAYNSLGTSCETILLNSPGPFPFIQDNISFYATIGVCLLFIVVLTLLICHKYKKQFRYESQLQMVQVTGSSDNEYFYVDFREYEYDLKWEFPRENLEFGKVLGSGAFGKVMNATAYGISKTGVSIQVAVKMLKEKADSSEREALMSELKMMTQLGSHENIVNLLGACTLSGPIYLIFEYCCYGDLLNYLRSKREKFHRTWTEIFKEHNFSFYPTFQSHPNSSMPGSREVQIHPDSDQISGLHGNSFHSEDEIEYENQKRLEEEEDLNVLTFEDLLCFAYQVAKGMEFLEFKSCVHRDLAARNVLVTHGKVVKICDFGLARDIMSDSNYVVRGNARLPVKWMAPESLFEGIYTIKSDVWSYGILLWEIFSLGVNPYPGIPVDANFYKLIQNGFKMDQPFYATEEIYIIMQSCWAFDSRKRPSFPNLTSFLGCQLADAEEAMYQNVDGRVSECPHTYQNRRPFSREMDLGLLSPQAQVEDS
Summary of the method: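 Recombinant FLT3 (5 ng) phosphorylating poly(Glu4:Tyr1) (2 μg) with 10 μM ATP plus [^33P]-ATP in MOPS pH 7.0 buffer, 4% DMSO final, 60 min at 30° C. Reaction stopped with phosphoric acid, filter-captured and scintillation-counted; IC50 derived from dose-response.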

[8] = system: MV4-11 human acute myeloid leukemia cell with FLT3-ITD mutation; experiment: MV4-11 cell proliferation assay (CellTiter-96); type: cell-based; settings: Cytotoxicity, MV4-11 cells, 72 hours
Summary of the method: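 MV4-11 cells (FLT3-ITD, FLT3-dependent growth) seeded at 6500 cells/well, incubated overnight at 37° C., 5% CO2, then exposed to increasing compound concentrations for 72 hours. Viability read by CellTiter96 AQueous One reagent (4 hours), absorbance at 490 nm.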

[9] = system: CSF-1-dependent M-NFS-60 mouse myeloid leukemia cell; experiment: M-NFS-60 cell proliferation assay (CellTiter-96); type: cell-based; settings: Cytotoxicity, M-NFS-60 cells, 72 hours
Summary of the method: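 CSF-1-dependent M-NFS-60 cells seeded at 2000 cells/well, settled overnight at 37 °C, 5% CO2, then exposed to increasing compound concentrations for 72 h. Viability read by CellTiter 96 AQueous One reagent (4 h) at 490 nm absorbance.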

Sequence of PDGFRβ kinase (P09619 33-1106): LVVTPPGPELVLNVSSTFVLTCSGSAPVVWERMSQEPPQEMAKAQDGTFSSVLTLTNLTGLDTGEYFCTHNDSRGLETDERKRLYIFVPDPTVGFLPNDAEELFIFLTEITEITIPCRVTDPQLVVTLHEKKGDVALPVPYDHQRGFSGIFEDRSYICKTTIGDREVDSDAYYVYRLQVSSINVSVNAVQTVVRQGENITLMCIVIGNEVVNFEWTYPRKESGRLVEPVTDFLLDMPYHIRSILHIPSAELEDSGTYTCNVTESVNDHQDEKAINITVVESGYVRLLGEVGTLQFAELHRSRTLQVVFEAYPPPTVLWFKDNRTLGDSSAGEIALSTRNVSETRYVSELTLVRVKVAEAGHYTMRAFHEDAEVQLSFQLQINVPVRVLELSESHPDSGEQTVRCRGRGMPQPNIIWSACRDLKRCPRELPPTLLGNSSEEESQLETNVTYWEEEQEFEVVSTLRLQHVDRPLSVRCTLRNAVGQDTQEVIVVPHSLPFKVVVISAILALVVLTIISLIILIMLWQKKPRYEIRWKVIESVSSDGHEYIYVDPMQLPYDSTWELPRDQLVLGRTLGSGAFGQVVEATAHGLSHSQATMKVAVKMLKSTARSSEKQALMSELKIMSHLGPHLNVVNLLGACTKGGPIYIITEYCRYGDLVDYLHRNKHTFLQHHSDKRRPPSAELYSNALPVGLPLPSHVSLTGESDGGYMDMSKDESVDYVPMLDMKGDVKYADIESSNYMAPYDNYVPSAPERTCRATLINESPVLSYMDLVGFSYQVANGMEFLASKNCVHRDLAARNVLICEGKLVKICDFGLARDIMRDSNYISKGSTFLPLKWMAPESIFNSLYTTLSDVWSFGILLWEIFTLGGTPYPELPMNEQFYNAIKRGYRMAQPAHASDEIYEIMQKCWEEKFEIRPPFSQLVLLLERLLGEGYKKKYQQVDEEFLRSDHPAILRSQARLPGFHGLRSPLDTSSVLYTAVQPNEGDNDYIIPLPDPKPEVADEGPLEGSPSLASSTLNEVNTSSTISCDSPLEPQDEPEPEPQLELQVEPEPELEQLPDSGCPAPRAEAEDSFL

| Structure (SMILES) | IC50 ([1]; bound) | inhibition at 1 µM [2] | IC50 [3] | IC50 [4] | IC50 ([5]; class symbol) | IC50 [6] | IC50 ([7]; bound) | IC50 [8] | IC50 [9] | IC50 ([5]; bound) | IC50 ([7]; class symbol) | IC50 ([1]; class symbol) |
| --- | --- | --- | --- | --- | --- | --- | --- | --- | --- | --- | --- | --- |
| COc1ccc(COc2ccc(Nc3ccc4ncc(N5CCOCC5)nc4c3)cc2OC)cc1 [Example 24, N-(3-methoxy-4-((4-methoxybenzyl)oxy)phenyl)-3-morpholinoquinoxalin-6-amine] | > 1000 nM | > 50% | < 100 nM | > 10000 nM | < 100 nM | < 300 nM | > 1000 nM | 1000 to 10000 nM | < 300 nM |  |  |  |
| COCCN1CCN(c2cnc3ccc(Nc4ccc(OCc5ccc(OC)nc5)c(OC)c4)c(C#N)c3n2)CC1 [Example 97, 6-((3-methoxy-4-((6-methoxypyridin-3-yl)methoxy)phenyl)amino)-3-(4-(2-methoxyethyl)piperazin-1-yl)quinoxaline-5-carbonitrile] | > 1000 nM | > 50% | < 100 nM | > 10000 nM | 100 to 300 nM | 300 to 1000 nM | > 1000 nM | 1000 to 10000 nM | < 300 nM |  |  |  |
| COc1cc(Nc2ccc3ncc(N4CCOCC4)nc3c2C#N)ccc1OCc1ccc(F)cc1 [Example 40, 6-((4-((4-fluorobenzyl)oxy)-3-methoxyphenyl)amino)-3-morpholinoquinoxaline-5-carbonitrile] | > 1000 nM | > 50% | < 100 nM | > 10000 nM |  | > 10000 nM | > 1000 nM | > 10000 nM | < 300 nM | > 1000 nM |  |  |
| COc1cc(Nc2ccc3ncc(N4CCOCC4)nc3c2C#N)ccc1OCc1cccc(F)c1 [Example 91, 6-((4-((3-fluorobenzyl)oxy)-3-methoxyphenyl)amino)-3-morpholinoquinoxaline-5-carbonitrile] | > 1000 nM | > 50% | < 100 nM | > 10000 nM | 100 to 300 nM | 1000 to 10000 nM | > 1000 nM | 1000 to 10000 nM | 300 to 1000 nM |  |  |  |
| COc1ccc(COc2ccc(Nc3ccc4ncc(N5CCN(CCOC(C)=O)CC5)nc4c3C#N)cc2OC)cn1 [Example 74, 2-(4-(8-cyano-7-((3-methoxy-4-((6-methoxypyridin-3-yl)methoxy)phenyl)amino)quinoxalin-2-yl)piperazin-1-yl)ethyl acetate] | > 1000 nM | > 50% | < 100 nM | > 10000 nM | < 100 nM | 300 to 1000 nM | > 1000 nM | 1000 to 10000 nM | < 300 nM |  |  |  |
| COc1ccc(COc2ccc(Oc3ccc4ncc(N5CCOCC5)nc4c3C#N)cc2OC)cc1 [Example 27, 6-(3-methoxy-4-((4-methoxybenzyl)oxy)phenoxy)-3-morpholinoquinoxaline-5-carbonitrile] | > 1000 nM | > 50% | < 100 nM | > 10000 nM | 100 to 300 nM | < 300 nM | > 1000 nM | > 10000 nM | < 300 nM |  |  |  |
| COc1cc(Nc2ccc3ncc(N4CCC(N(C)C)CC4)nc3c2C#N)ccc1OCc1cccc(F)c1 [Example 89, 3-(4-(dimethylamino)piperidin-1-yl)-6-((4-((3-fluorobenzyl)oxy)-3-methoxyphenyl)amino)quinoxaline-5-carbonitrile] | > 1000 nM | > 50% | < 100 nM | 1000 to 10000 nM | < 100 nM | 1000 to 10000 nM | > 1000 nM | 1000 to 10000 nM | < 300 nM |  |  |  |
| COc1ccc(COc2ccc(Nc3ccc4ncc(N5CCOCC5)nc4c3C#N)c(F)c2)cc1 [Example 53, 6-((2-fluoro-4-((4-methoxybenzyl)oxy)phenyl)amino)-3-morpholinoquinoxaline-5-carbonitrile] | > 1000 nM | > 50% | < 100 nM | > 10000 nM | 300 to 1000 nM | 1000 to 10000 nM |  | < 300 nM | 300 to 1000 nM |  | 300 to 1000 nM |  |
| COc1cc(Nc2ccc3ncc(N4CCOCC4)nc3c2C#N)ccc1OCc1cnn(CC2CC2)c1 [Example 141, 6-((4-((1-(cyclopropylmethyl)-1H-pyrazol-4-yl)methoxy)-3-methoxyphenyl)amino)-3-morpholinoquinoxaline-5-carbonitrile] |  | > 50% | < 100 nM | > 10000 nM | < 100 nM | < 300 nM | > 1000 nM | 1000 to 10000 nM | < 300 nM |  |  | 300 to 1000 nM |
| COc1ccc(COc2ccc(Nc3ccc4ncc(N5CCC(COC(C)=O)CC5)nc4c3C#N)cc2OC)cc1 [Example 71, (1-(8-cyano-7-((3-methoxy-4-((4-methoxybenzyl)oxy)phenyl)amino)quinoxalin-2-yl)piperidin-4-yl)methyl acetate] | > 1000 nM | > 50% | < 100 nM | > 10000 nM | < 100 nM | < 300 nM | > 1000 nM | > 10000 nM | < 300 nM |  |  |  |
| COc1cc(Nc2ccc3ncc(N4CCOCC4)nc3c2C#N)ccc1OCc1ccc(CN(C)C)nc1 [Example 115, 6-((4-((6-((dimethylamino)methyl)pyridin-3-yl)methoxy)-3-methoxyphenyl)amino)-3-morpholinoquinoxaline-5-carbonitrile] | > 1000 nM | > 50% | < 100 nM | > 10000 nM | 300 to 1000 nM | 1000 to 10000 nM | > 1000 nM | 1000 to 10000 nM | < 300 nM |  |  |  |
| COc1ccc(COc2ccc(Nc3ccc4ncc(N5CCN(CCO)CC5)nc4c3C#N)cc2OC)cn1 [Example 75, 3-(4-(2-hydroxyethyl)piperazin-1-yl)-6-((3-methoxy-4-((6-methoxypyridin-3-yl)methoxy)phenyl)amino)quinoxaline-5-carbonitrile] | > 1000 nM | > 50% | < 100 nM | > 10000 nM | 100 to 300 nM | 300 to 1000 nM | > 1000 nM | > 10000 nM | < 300 nM |  |  |  |
| COc1ccc(COc2ccc(Nc3ccc4ncc(N5CCOCC5)nc4c3C#N)cc2)cc1 [Example 38, 6-((4-((4-methoxybenzyl)oxy)phenyl)amino)-3-morpholinoquinoxaline-5-carbonitrile] |  | > 50% | < 100 nM | > 10000 nM | < 100 nM | 300 to 1000 nM |  | < 300 nM | < 300 nM |  | 100 to 300 nM | 100 to 300 nM |
| COc1cc(N(C)c2ccc3ncc(N4CCOCC4)nc3c2C#N)ccc1OCc1ccc(C)nc1 [Example 129, 6-((3-methoxy-4-((6-methylpyridin-3-yl)methoxy)phenyl)(methyl)amino)-3-morpholinoquinoxaline-5-carbonitrile] | > 1000 nM | > 50% | < 100 nM | > 10000 nM | 300 to 1000 nM | 1000 to 10000 nM | > 1000 nM | 1000 to 10000 nM | 300 to 1000 nM |  |  |  |
| COc1cc(Nc2ccc3ncc(N4CCOCC4)nc3c2C#N)ccc1OCc1ccsc1 [Example 126, 6-((3-methoxy-4-(thiophen-3-ylmethoxy)phenyl)amino)-3-morpholinoquinoxaline-5-carbonitrile] | > 1000 nM | > 50% | < 100 nM | > 10000 nM | < 100 nM | < 300 nM | > 1000 nM | 1000 to 10000 nM | 300 to 1000 nM |  |  |  |
